The values below come from PubChem BioAssay (NCI).

Where “and” joins values, the source holds several entries; their conditions need not be identical. Identical values can stand only once.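 Interpolation was linear, between the two tested concentrations surrounding the appropriate level; five concentrations were tested over 48 hours in 96-well plates. The concentration for 50% growth inhibition is given as GI50. TGI: total growth inhibition.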

Test systems include SF-539 CNS; OVCAR-4 ovarian; SK-MEL-28 melanoma; MCF7 breast; T-47D breast; SF-295 CNS; KM12 colon; CCRF-CEM leukemia; OVCAR-5 ovarian; COLO 205 colon.
Common to all, as to assay: inhibition of tumour cell growth, NCI panel, 48 h

On to `O=C1CN2CCC1C/C2=C\c1ccnc2c(Cl)cccc12` (stereo not drawn), for which the GI50 with SF-539 CNS was over 100 µM; in the experiment with OVCAR-4 ovarian, 42.5 µM; in the experiment on SK-MEL-28 melanoma it was over 100 µM; in the experiment on MCF7 breast, 4.16 µM; with T-47D breast, 18.8 µM; in the experiment with SF-295 CNS it was 46.5 µM. Also, the GI50 with KM12 colon was 56.8 µM; with CCRF-CEM leukemia it was 36.5 µM; in the experiment with OVCAR-5 ovarian, over 100 µM; in the experiment on COLO 205 colon, over 100 µM. The TGI with SF-539 CNS, with OVCAR-4 ovarian, in the experiment on SK-MEL-28 melanoma, in the experiment on MCF7 breast, in the experiment with T-47D breast and in the experiment with SF-295 CNS was over 100 µM throughout. Further, the TGI in the experiment with KM12 colon, with CCRF-CEM leukemia, in the experiment on OVCAR-5 ovarian and in the experiment on COLO 205 colon was over 100 µM each time.

As for `Cc1cc(Nc2ncc(Cl)c(Nc3ccccc3S(=O)(=O)C(C)C)n2)c(OC(C)C)cc1C1CCNCC1`, the GI50 in the experiment with SF-539 CNS is 1.62 µM; in the experiment with OVCAR-4 ovarian, 2.14 µM and 1.15 µM; in the experiment on SK-MEL-28 melanoma, 1.22 µM; in the experiment on MCF7 breast, 0.552 µM; in the experiment on T-47D breast it was 1.47 µM and 1.57 µM; in the experiment with SF-295 CNS it was 1.43 µM and 1.63 µM. Further, the GI50 with KM12 colon is 1.49 µM and 0.911 µM; in the experiment on CCRF-CEM leukemia, 1.87 µM; in the experiment on OVCAR-5 ovarian, 1.14 µM and 0.714 µM and 0.644 µM; in the experiment with COLO 205 colon it was 0.312 µM and 0.332 µM. Further, the TGI in the experiment with SF-539 CNS is 2.99 µM; in the experiment on OVCAR-4 ovarian it was 7.61 µM and 2.46 µM; in the experiment on SK-MEL-28 melanoma, 2.47 µM; in the experiment on MCF7 breast, 2.04 µM; in the experiment with T-47D breast, 3.27 µM and 3.17 µM; with SF-295 CNS, 2.81 µM and 3.16 µM. The TGI with KM12 colon is 3.11 µM and 2.1 µM; with CCRF-CEM leukemia, 4.18 µM; with OVCAR-5 ovarian it was 2.38 µM and 2.13 µM and 2.15 µM; in the experiment with COLO 205 colon it was 1.39 µM and 1.28 µM.

For `CCSc1nc(=S)[nH]c2[nH]ncc12`, the GI50 was 45.1 µM with SF-539 CNS; over 100 µM in the experiment with OVCAR-4 ovarian; over 100 µM in the experiment with SK-MEL-28 melanoma; 66.8 µM in the experiment on MCF7 breast; 86.1 µM with T-47D breast; over 100 µM with SF-295 CNS. Further, the GI50 is 86.5 µM in the experiment on KM12 colon, 59 µM in the experiment on CCRF-CEM leukemia, over 100 µM in the experiment with OVCAR-5 ovarian and 38.1 µM in the experiment on COLO 205 colon. In addition, the TGI in the experiment with SF-539 CNS, in the experiment with OVCAR-4 ovarian, in the experiment with SK-MEL-28 melanoma, in the experiment on MCF7 breast, in the experiment on T-47D breast and in the experiment with SF-295 CNS was over 100 µM throughout. Further, the TGI in the experiment with KM12 colon, in the experiment with CCRF-CEM leukemia, in the experiment on OVCAR-5 ovarian and in the experiment with COLO 205 colon was over 100 µM in each case.

Consider `N#C/C(=C\c1ccc(Cl)cc1)n1nnc2cc(F)c(F)cc21`, for which the GI50 with SF-539 CNS was 1.97 µM; in the experiment on OVCAR-4 ovarian it was 1.59 µM; with SK-MEL-28 melanoma, 2.04 µM; in the experiment with MCF7 breast it was 1.53 µM; in the experiment with T-47D breast, 1.31 µM; in the experiment with SF-295 CNS, 2.26 µM. For the same compound, the GI50 is 1.95 µM with KM12 colon, 2.01 µM with CCRF-CEM leukemia, 1.9 µM with OVCAR-5 ovarian and 2.18 µM with COLO 205 colon. Further, the TGI is 3.77 µM with SF-539 CNS; 3.48 µM with OVCAR-4 ovarian; 4.38 µM in the experiment with SK-MEL-28 melanoma; 4.49 µM with MCF7 breast; 4.72 µM in the experiment on T-47D breast; 5.53 µM in the experiment on SF-295 CNS. The TGI was 4.29 µM in the experiment on KM12 colon, over 100 µM in the experiment on CCRF-CEM leukemia, 3.81 µM in the experiment with OVCAR-5 ovarian and 4.83 µM in the experiment on COLO 205 colon.

Consider `O=C1OC2(c3ccccc31)c1cc(I)c(O)c(I)c1Oc1c2cc(I)c(O)c1I`, for which the TGI with SF-539 CNS, with OVCAR-4 ovarian, in the experiment on SK-MEL-28 melanoma, in the experiment on MCF7 breast, with T-47D breast and in the experiment on SF-295 CNS was over 100 µM each time. Further, the TGI in the experiment on KM12 colon was 43.1 µM; with CCRF-CEM leukemia, over 100 µM; in the experiment on OVCAR-5 ovarian, over 100 µM; in the experiment with COLO 205 colon, over 100 µM.

Turning to `CN(C)c1ccc2[nH]c(O)c(C=Nc3ccc(S(N)(=O)=O)cc3)c2c1`, the GI50 in the experiment with SF-539 CNS is over 25 µM; with OVCAR-4 ovarian, over 25 µM; in the experiment with SK-MEL-28 melanoma it was over 25 µM; in the experiment on MCF7 breast, 19 µM; with T-47D breast it was over 25 µM; in the experiment with SF-295 CNS it was over 25 µM. The GI50 is 1.15 µM in the experiment with KM12 colon, 17.9 µM with CCRF-CEM leukemia, over 25 µM in the experiment with OVCAR-5 ovarian and 15.6 µM with COLO 205 colon. In addition, the TGI in the experiment with SF-539 CNS, with OVCAR-4 ovarian, in the experiment on SK-MEL-28 melanoma, in the experiment with MCF7 breast, in the experiment with T-47D breast and in the experiment on SF-295 CNS was over 25 µM in each case. Besides, the TGI in the experiment with KM12 colon, with CCRF-CEM leukemia, with OVCAR-5 ovarian and in the experiment on COLO 205 colon was over 25 µM in each case.

Regarding `Cc1c(N(C(=O)c2cc(-c3cc(Cl)ccc3C(=O)N3Cc4ccccc4C[C@H]3CN3CCOCC3)n(C)c2C)c2ccc(O)cc2)cc(C#N)n1C`, the GI50 was 20.6 µM with SF-539 CNS; 11.4 µM in the experiment on OVCAR-4 ovarian; 31.3 µM with SK-MEL-28 melanoma; 23.5 µM in the experiment with MCF7 breast; 7.09 µM in the experiment on T-47D breast; 13.2 µM in the experiment on SF-295 CNS. Moreover, the GI50 was 51 µM in the experiment on KM12 colon, 8.02 µM with CCRF-CEM leukemia, 44.9 µM with OVCAR-5 ovarian and 17.1 µM in the experiment on COLO 205 colon. The TGI in the experiment with SF-539 CNS, with OVCAR-4 ovarian, in the experiment with SK-MEL-28 melanoma, in the experiment with MCF7 breast, with T-47D breast and in the experiment on SF-295 CNS was over 100 µM in each case. The TGI in the experiment with KM12 colon was over 100 µM; in the experiment with CCRF-CEM leukemia it was over 100 µM; in the experiment on OVCAR-5 ovarian it was over 100 µM; in the experiment on COLO 205 colon, 35.2 µM.

`COc1cc2c3c(n(CCCn4ccnc4)c(=O)c2cc1OC)-c1ccccc1C3=O`: the GI50 was under 0.0373 µM with SF-539 CNS; 0.468 µM in the experiment with OVCAR-4 ovarian; 1.59 µM in the experiment with SK-MEL-28 melanoma; under 0.02 µM with MCF7 breast; 0.0357 µM with T-47D breast; under 0.01 µM in the experiment with SF-295 CNS. The GI50 is 0.126 µM in the experiment on KM12 colon, under 0.01 µM in the experiment on CCRF-CEM leukemia, 0.26 µM with OVCAR-5 ovarian and 0.0979 µM with COLO 205 colon. The TGI in the experiment with SF-539 CNS is 0.441 µM; in the experiment with OVCAR-4 ovarian, 22.4 µM; with SK-MEL-28 melanoma it was over 100 µM; with MCF7 breast, over 43.4 µM; in the experiment with T-47D breast it was 0.509 µM; in the experiment with SF-295 CNS, 0.218 µM. The TGI turned out to be 5.03 µM in the experiment with KM12 colon and 1.25 µM in the experiment with OVCAR-5 ovarian.

Regarding `COc1ccc2c(c1)/C(=C/c1c(-c3ccc(C)cc3)nc3sc(C)cn13)C(=O)N2`, the GI50 is 20.3 µM with SF-539 CNS; 14.2 µM in the experiment with OVCAR-4 ovarian; 23.4 µM in the experiment on SK-MEL-28 melanoma; 12.1 µM in the experiment with MCF7 breast; 5.5 µM in the experiment with T-47D breast; 11 µM in the experiment with SF-295 CNS. The GI50 with KM12 colon was 23.1 µM; with CCRF-CEM leukemia, 6.84 µM; in the experiment with OVCAR-5 ovarian, 16.6 µM; in the experiment with COLO 205 colon it was 19.8 µM. Moreover, the TGI in the experiment with SF-539 CNS, in the experiment with OVCAR-4 ovarian, in the experiment on SK-MEL-28 melanoma, in the experiment with MCF7 breast, with T-47D breast and with SF-295 CNS was over 100 µM throughout. The TGI was over 100 µM with KM12 colon, 80.3 µM in the experiment on CCRF-CEM leukemia, 87.3 µM with OVCAR-5 ovarian and over 100 µM in the experiment with COLO 205 colon.

In the case of `COc1cc(N)ccc1Nc1c2ccccc2nc2ccccc12`, the GI50 is 12.1 µM in the experiment with SF-539 CNS; 10.6 µM with OVCAR-4 ovarian; 16.3 µM with SK-MEL-28 melanoma; 2.27 µM with MCF7 breast; 15.5 µM in the experiment with T-47D breast; 12 µM with SF-295 CNS. The GI50 with KM12 colon was 7.56 µM; in the experiment on CCRF-CEM leukemia it was 3.73 µM; with OVCAR-5 ovarian, 15 µM; in the experiment on COLO 205 colon, 5.55 µM. The TGI in the experiment on SF-539 CNS is 26.5 µM; with OVCAR-4 ovarian it was over 45.6 µM; in the experiment with SK-MEL-28 melanoma, 34.9 µM; in the experiment on MCF7 breast, 13.5 µM; with T-47D breast, 47.8 µM; with SF-295 CNS, 30.1 µM. In addition, the TGI was 20.5 µM in the experiment with KM12 colon, over 100 µM with CCRF-CEM leukemia, 29.9 µM in the experiment on OVCAR-5 ovarian and 18.4 µM in the experiment on COLO 205 colon.

Turning to `Cc1cc(-c2cc(C)c(O)c(C(C)(C)C)c2)cc(C(C)(C)C)c1O`, the TGI in the experiment on SF-539 CNS is 28.2 µM and 35.4 µM; with OVCAR-4 ovarian, 27.6 µM and 23.8 µM; in the experiment with SK-MEL-28 melanoma it was 24.5 µM and 34.2 µM; in the experiment with MCF7 breast, 16.7 µM and 19.4 µM; with T-47D breast it was 20.1 µM and 20.7 µM; with SF-295 CNS, 23.1 µM and 23.2 µM. Moreover, the TGI in the experiment on KM12 colon is 20.8 µM and 21.3 µM; in the experiment on CCRF-CEM leukemia, 22.4 µM and 39.1 µM; in the experiment on OVCAR-5 ovarian, 24.4 µM and 28.4 µM; in the experiment with COLO 205 colon it was 23.1 µM and 28.9 µM.
